The GI50 is the concentration giving 50% growth inhibition. Usually TGI stands for the concentration at which net growth stops. A high value points to less potent growth arrest.

Among the data in PubChem BioAssay (NCI) are GI50 and TGI values, retold here.

Values joined by “and” are separate entries in the source; they are usually repeats but may differ in a detail not shown here. Equal entries are not always repeated.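 Dose response: 5 concentrations. Exposure: 48 h. Format: 96-well plates. Endpoint: linear interpolation; highest concentration if not reached. Here, GI50 denotes the concentration required for 50% inhibition of growth. TGI: total growth inhibition.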

Some test systems named below: UO-31 renal; CCRF-CEM leukemia; T-47D breast; SR leukemia; HL-60(TB) leukemia; NCI-H226 lung; DU-145 prostate; M14 melanoma; KM12 colon; SF-295 CNS.
Common to all, as to assay: DTP human tumour cell line panel, 48 h

For `O=C1/C(=C/c2ccc(Cl)cc2)CN(Cc2cn(CCCNc3ccnc4cc(Cl)ccc34)nn2)C/C1=C\c1ccc(Cl)cc1`, the GI50 is 1.16 µM in the assay on UO-31 renal; 0.426 µM in the assay with CCRF-CEM leukemia; 1.95 µM with T-47D breast; 0.379 µM in the assay on SR leukemia; 0.809 µM with HL-60(TB) leukemia; 1.92 µM in the assay with NCI-H226 lung. For the same compound, the GI50 in the assay with DU-145 prostate is 1.16 µM; in the assay with M14 melanoma, 1.72 µM; in the assay on KM12 colon it was 0.291 µM; in the assay on SF-295 CNS, 0.708 µM. Also, the TGI was 2.45 µM with UO-31 renal; over 20.5 µM with CCRF-CEM leukemia; 6.37 µM with T-47D breast; 1.93 µM in the assay on SR leukemia; 3.33 µM in the assay with HL-60(TB) leukemia; 4.39 µM with NCI-H226 lung. In addition, the TGI in the assay with DU-145 prostate is 2.47 µM; with M14 melanoma, 3.68 µM; in the assay on KM12 colon, 1.11 µM; in the assay on SF-295 CNS, 1.84 µM.

Turning to `COc1ccc(-c2nc3sccn3c2-c2ccnc(NCCNS(=O)(=O)c3ccc(C(F)(F)F)cc3)n2)cc1`, the GI50 is 1.09 µM in the assay with UO-31 renal; 0.37 µM in the assay on CCRF-CEM leukemia; 1.69 µM with T-47D breast; 0.972 µM in the assay on SR leukemia; 0.494 µM with HL-60(TB) leukemia; 2.42 µM in the assay with NCI-H226 lung. Further, the GI50 with DU-145 prostate was 1.53 µM; with M14 melanoma, 0.69 µM; with KM12 colon, 1.36 µM; with SF-295 CNS, 2.24 µM. Also, the TGI was over 100 µM in the assay with UO-31 renal; over 100 µM in the assay with CCRF-CEM leukemia; over 100 µM in the assay with T-47D breast; over 100 µM in the assay with SR leukemia; over 100 µM in the assay on HL-60(TB) leukemia; 10.3 µM in the assay with NCI-H226 lung. The TGI in the assay on DU-145 prostate was over 100 µM; in the assay with M14 melanoma, 3.25 µM; in the assay on KM12 colon, 36.2 µM; with SF-295 CNS, 5.58 µM.

With `CC(=O)Oc1ccc(C2OC(c3ccc4ccccc4c3OC(C)=O)=NN2C(C)=O)c(OC(C)=O)c1` (stereo not given), the GI50 in the assay on UO-31 renal is 0.146 µM; with CCRF-CEM leukemia, 0.32 µM; in the assay with T-47D breast, 0.664 µM; with SR leukemia, 0.198 µM; with HL-60(TB) leukemia, 0.267 µM; in the assay with NCI-H226 lung it was 0.515 µM. Moreover, the GI50 in the assay with DU-145 prostate was 0.476 µM; in the assay on M14 melanoma, 0.368 µM; in the assay with KM12 colon, 0.536 µM; with SF-295 CNS it was 0.295 µM. The TGI in the assay on UO-31 renal is 3.14 µM; in the assay with CCRF-CEM leukemia, over 100 µM; with T-47D breast, over 52.6 µM; in the assay on SR leukemia, over 34.5 µM; in the assay with HL-60(TB) leukemia it was 4.82 µM; in the assay on NCI-H226 lung, over 38.9 µM. For the same compound, the TGI in the assay with DU-145 prostate was over 100 µM; in the assay with M14 melanoma, over 45.6 µM; in the assay with KM12 colon it was over 57.6 µM; with SF-295 CNS it was 14.8 µM.

For the compound `O=S(=O)(NCCNc1nccc(-c2c(-c3ccc(F)cc3)nc3sccn23)n1)c1ccc(O)cc1`, the GI50 was 2.39 µM in the assay on UO-31 renal; 2 µM in the assay on CCRF-CEM leukemia; 2.36 µM in the assay with T-47D breast; 1.82 µM with SR leukemia; 4.93 µM with HL-60(TB) leukemia; 6.91 µM in the assay with NCI-H226 lung. Moreover, the GI50 in the assay with DU-145 prostate is 3.17 µM; in the assay on M14 melanoma, 3.36 µM; with KM12 colon, 2.05 µM; with SF-295 CNS it was 10.4 µM. Also, the TGI in the assay with UO-31 renal amounted to 16.7 µM; with CCRF-CEM leukemia, 29.8 µM; in the assay on T-47D breast, 19.2 µM; in the assay with SR leukemia, 21.5 µM; with HL-60(TB) leukemia it was 30.5 µM; in the assay on NCI-H226 lung, 21.9 µM. The concentration for total growth inhibition (TGI) came to 28.8 µM in the assay with DU-145 prostate, 18.1 µM in the assay with M14 melanoma, 14.2 µM in the assay with KM12 colon and 34.6 µM in the assay with SF-295 CNS.

Consider `Cn1c2c(c3ccccc31)CCN1C[C@@H]3CCCC[C@H]3C[C@@H]21`, for which the GI50 with UO-31 renal was 2.2 µM; in the assay on CCRF-CEM leukemia, 4.77 µM; in the assay on T-47D breast, 14.1 µM; in the assay with SR leukemia, 2.96 µM; in the assay on HL-60(TB) leukemia, 2.27 µM; in the assay with NCI-H226 lung, 2.75 µM. The GI50 in the assay with DU-145 prostate was 2.36 µM; in the assay with M14 melanoma, 2.95 µM; in the assay with KM12 colon, 2.97 µM; in the assay on SF-295 CNS it was 2.25 µM. The TGI in the assay with UO-31 renal was 13.7 µM; in the assay on CCRF-CEM leukemia it was over 100 µM; in the assay on T-47D breast, over 100 µM; in the assay with SR leukemia, over 25.8 µM; in the assay on HL-60(TB) leukemia it was over 28.4 µM; in the assay with NCI-H226 lung, over 26.1 µM. For the same compound, the TGI in the assay on DU-145 prostate was 5.8 µM; in the assay on M14 melanoma it was 18.4 µM; in the assay with KM12 colon, 9.97 µM; in the assay on SF-295 CNS, 6.58 µM.

As for `CC[C@]12C=CCN3CC[C@]4(C(=C(C(=O)OC)C1)Nc1cc5c(cc14)[C@@H]1[C@H](O5)[C@@H](O)[C@@]4(CC)CC(C(=O)OC)=C5Nc6ccccc6[C@@]56CCN1[C@@H]46)[C@@H]32`, the GI50 was 0.0951 µM and 0.127 µM with UO-31 renal; 0.238 µM and 0.345 µM in the assay with CCRF-CEM leukemia; 0.335 µM in the assay with T-47D breast; 0.0922 µM and 0.146 µM with SR leukemia; 0.134 µM and 0.269 µM in the assay on HL-60(TB) leukemia; 0.688 µM in the assay with NCI-H226 lung. Besides, the GI50 in the assay on DU-145 prostate was 1.59 µM and 1.77 µM; in the assay on M14 melanoma, 0.517 µM and 0.385 µM; in the assay on KM12 colon it was 0.76 µM and 0.471 µM; in the assay on SF-295 CNS, 1.17 µM and 0.535 µM. The total growth inhibition concentration (TGI) is 3.31 µM and 6.25 µM with UO-31 renal; 25 µM and > 100 µM in the assay with CCRF-CEM leukemia; over 100 µM in the assay on T-47D breast; 25 µM and > 100 µM in the assay on SR leukemia; 9.05 µM and 1.91 µM in the assay on HL-60(TB) leukemia; 25 µM in the assay on NCI-H226 lung. Further, the TGI was 25 µM and 10.7 µM in the assay with DU-145 prostate; 25 µM and > 100 µM with M14 melanoma; 8.41 µM and 5.92 µM in the assay with KM12 colon; 25 µM and 12.8 µM in the assay with SF-295 CNS.

`Cc1cc(S(=O)(=O)Nc2nc3ccccc3c(=O)n2Cc2ccco2)c(S)cc1Cl`: the GI50 in the assay with UO-31 renal was 49.5 µM; in the assay on CCRF-CEM leukemia, 29.2 µM; with T-47D breast it was 15 µM; in the assay with SR leukemia, 19.5 µM; in the assay with HL-60(TB) leukemia it was 74.3 µM; with NCI-H226 lung, 83.6 µM. Also, the GI50 in the assay on DU-145 prostate is 30.7 µM; in the assay on M14 melanoma, 69.9 µM; with KM12 colon, 30.1 µM; in the assay on SF-295 CNS it was 31.8 µM. Also, the TGI in the assay with UO-31 renal was over 100 µM; in the assay with CCRF-CEM leukemia, over 100 µM; in the assay on T-47D breast it was 81.4 µM; with SR leukemia, 40.7 µM; in the assay with HL-60(TB) leukemia, over 100 µM; with NCI-H226 lung, over 100 µM. Also, the TGI with DU-145 prostate, in the assay on M14 melanoma, in the assay with KM12 colon and in the assay on SF-295 CNS was over 100 µM each time.

Regarding `CCOC(=O)C#Cc1cccc(C#CC(=O)OCC)c1`, the TGI in the assay with UO-31 renal was found to be 10.1 µM; in the assay on CCRF-CEM leukemia, 6.34 µM; in the assay on T-47D breast, 98.4 µM; with SR leukemia, 3.25 µM; with HL-60(TB) leukemia it was 4.06 µM; in the assay with NCI-H226 lung it was 22.1 µM. Moreover, the TGI is 17.9 µM with DU-145 prostate, 5.95 µM in the assay with M14 melanoma, 15.2 µM in the assay with KM12 colon and 3.48 µM in the assay with SF-295 CNS.
